# In patent US20230115176A1 (Ra Pharmaceuticals, Inc., priority 2019, published 2023):
# What was measured:
# [1] = Kinetic solubility in PBS pH 7.4, HPLC-UV (Example 21, Table 27); assay type: physicochemical; conditions: phosphate buffered saline, aqueous buffer, kinetic from dmso stock, 0.5 M PBS, shaken minimum 24 h at approximately 25° C., HPLC-UV 270 nm
# Procedure, shortened: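 10 mM DMSO stock diluted into 0.05 M PBS pH 7.4 (5% DMSO final), in triplicate, shaken ≥24 h at ~25 °C, then filtered by centrifugation. Supernatant concentration by HPLC-UV at 270 nm against external DMSO standards (15.6–500.0 μM).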
# [2] = tested on: P-glycoprotein (P-gp, MDR1); experiment: Permeability assay, bidirectional transport, efflux ratio (Example 30, Table 34); assay type: in vitro ADME, canine; conditions: dog, MDCK-MDR1, pH 7.4; read-out: MDCK-MDR efflux ratio
# Experimental: (§1) Permeability assays were carried out to provide a preliminary indication of suitability for oral dosing and compound permeability across the blood brain barrier. Unidirectional and bidirectional compound transport across Madin Darby canine kidney (MDCK) cell monolayers was assessed. For unidirectional transport assessment, transport across MDCK wild type (MDCK-WT) cell monolayers was assessed. For bidirectional transport, transport across MDCK-MDR1 cell monolayers was assessed. MDCK-MDR1 cells express the MDR1 gene encoding the P-glycoprotein (P-gp) efflux protein.
# (§2) MDCK-WT and MDCK-MDR1 cells were plated onto permeable polycarbonate supports in 12-well Costar transwell plates and allowed to grow and differentiate for 3 days. After 3 days in culture, the culture medium (DMEM supplemented with 10% FBS) was removed from both sides of the transwell inserts and cells were rinsed with warm HBSS. After the rinse step, the chambers were filled with warm transport buffer (HBSS containing 10 mM HEPES, 0.25% BSA, pH 7.4) and the plates were pre-incubated at 37° C. for 30 minutes prior to TEER (Trans Epithelial Electric Resistance) measurements.
# (§3) The buffer in the donor chamber (apical side for A-to-B assay, basolateral side for B-to-A assay) was removed and replaced with the working solution (3 μM test compound and 10 μM for control compounds in transport buffer). The plates were then placed at 37° C. under light agitation. At designated time points (30, 60 and 90 min), an aliquot of transport buffer from the receiver chamber was removed and replenished with fresh transport buffer. Samples were quenched with ice-cold ACN containing internal standard and then centrifuged to pellet protein. Resulting supernatants were further diluted with 50/50 ACN/H2O (Atenolol diluted in just water) and submitted for LC-MS/MS analysis. Apparent permeability (Pap) values were calculated from duplicate determinations. Atenolol and propranolol were tested as low and […] permeability references.
# Efflux ratios were calculated for bidirectional transport across MDCK-MDR1 cell monolayers as an indication of compound efflux by P-gp. The efflux ratio is calculated using the ratio of mean Papp values for B to A transport to mean Papp values for A to B transport [Papp(BA)/Papp(AB)].
# [3] = Permeability assay, unidirectional transport, Papp (Example 30, Table 34); assay type: in vitro ADME, canine; conditions: dog, pH 7.4; MDCK-WT cell monolayers, A-to-B, 3 μM test compound, 37° C., duplicate determinations
# Experimental: as §1, §2, §3
# Papp values indicate extent of compound permeation across monolayers.
# Human C5 = target: T1, Human C5 (Homo sapiens, UniProt P01031); experiment: Red blood cell (RBC) hemolysis assay, luminescent (Example 28, Table 32); assay type: cell-based; conditions: sheep EA cells, 1.5% C5-depleted human serum, 0.5 nM human C5, 1 hour at 37° C., luminescence (Table 32)
# T1 construct: purchased Complement Technology
# T1 sequence (P01031 19-1676): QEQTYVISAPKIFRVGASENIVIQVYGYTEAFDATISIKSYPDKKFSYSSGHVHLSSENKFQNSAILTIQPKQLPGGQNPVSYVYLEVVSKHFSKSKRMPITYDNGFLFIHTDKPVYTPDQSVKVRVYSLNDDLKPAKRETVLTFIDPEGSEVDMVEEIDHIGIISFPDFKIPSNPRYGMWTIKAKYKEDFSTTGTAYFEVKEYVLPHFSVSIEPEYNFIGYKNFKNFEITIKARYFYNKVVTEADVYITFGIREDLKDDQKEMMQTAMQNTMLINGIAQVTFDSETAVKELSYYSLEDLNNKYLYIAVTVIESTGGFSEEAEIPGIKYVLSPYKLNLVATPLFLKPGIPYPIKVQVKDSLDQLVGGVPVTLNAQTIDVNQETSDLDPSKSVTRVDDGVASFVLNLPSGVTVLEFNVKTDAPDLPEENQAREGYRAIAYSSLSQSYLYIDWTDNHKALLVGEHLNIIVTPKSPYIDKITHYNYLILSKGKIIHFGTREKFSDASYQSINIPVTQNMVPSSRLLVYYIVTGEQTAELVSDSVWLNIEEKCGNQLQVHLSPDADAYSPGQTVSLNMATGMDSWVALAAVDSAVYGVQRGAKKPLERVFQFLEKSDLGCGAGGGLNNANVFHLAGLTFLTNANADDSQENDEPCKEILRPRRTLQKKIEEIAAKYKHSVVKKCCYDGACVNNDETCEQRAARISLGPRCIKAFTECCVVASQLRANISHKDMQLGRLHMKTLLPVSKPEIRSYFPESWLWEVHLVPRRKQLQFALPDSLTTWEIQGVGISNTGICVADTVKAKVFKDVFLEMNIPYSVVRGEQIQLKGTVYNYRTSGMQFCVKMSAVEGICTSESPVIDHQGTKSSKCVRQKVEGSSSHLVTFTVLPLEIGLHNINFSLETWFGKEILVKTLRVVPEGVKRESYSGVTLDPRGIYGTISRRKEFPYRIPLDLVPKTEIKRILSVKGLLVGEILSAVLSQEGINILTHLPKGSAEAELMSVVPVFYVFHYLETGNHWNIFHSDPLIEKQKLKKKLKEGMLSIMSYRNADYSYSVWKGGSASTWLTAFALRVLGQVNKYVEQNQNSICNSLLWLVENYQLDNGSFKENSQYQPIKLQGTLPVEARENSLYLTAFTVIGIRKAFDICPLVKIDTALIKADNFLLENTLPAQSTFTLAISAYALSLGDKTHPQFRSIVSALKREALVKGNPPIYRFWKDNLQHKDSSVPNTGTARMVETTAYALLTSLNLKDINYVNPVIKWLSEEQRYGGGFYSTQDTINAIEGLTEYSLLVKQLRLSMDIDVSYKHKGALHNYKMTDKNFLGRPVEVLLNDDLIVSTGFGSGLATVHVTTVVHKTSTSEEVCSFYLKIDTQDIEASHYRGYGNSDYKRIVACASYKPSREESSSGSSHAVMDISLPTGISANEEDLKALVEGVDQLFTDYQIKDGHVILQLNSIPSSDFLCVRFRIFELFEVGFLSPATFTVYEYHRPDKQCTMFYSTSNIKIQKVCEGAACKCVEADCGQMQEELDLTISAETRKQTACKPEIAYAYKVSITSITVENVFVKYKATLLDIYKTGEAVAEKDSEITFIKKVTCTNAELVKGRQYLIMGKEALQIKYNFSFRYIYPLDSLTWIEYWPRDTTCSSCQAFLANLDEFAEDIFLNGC
# [4] = target: human C5 complement protein (Homo sapiens, UniProt P01031); experiment: Surface plasmon resonance (SPR), immobilized human C5, 37° C. (Example 27, Table 31); assay type: binding; conditions: lowest value obtained where a range of concentrations was analyzed (Table 31)
# human C5 complement protein, sequence (P01031 19-1676): as above
solubility kinetic [1],efflux ratio at 3 μM [2],Papp A→B at 3 μM [3],Kd [4],SMILES,IC50 (Human C5)
195 µM,60,24.2 ×10⁻⁶ cm/s,,COc1cc(CNC(C)=O)ccc1CN1CCCN(c2ccc(OC)c(OCCCC3CC3)c2)C1=O [CU0501],
,71,22.7 ×10⁻⁶ cm/s,,CCCCCOc1cc(N2CCCN(Cc3ccnc4c3c(Cl)cn4CC(=O)N3C[C@H]4C[C@@H]3CO4)C2=O)ccc1OC [CU0510],
,18,29 ×10⁻⁶ cm/s,,CCCCCOc1cc(N2CCCN(Cc3ccnc4c3c(Cl)cn4CC(=O)N(C)C)C2=O)cnc1OC [CU0616],
24 µM,,,0.08 nM,CCCCCOc1cc(N2CC[C@H](C)N(Cc3cccc4c3c(C)cn4CC(=O)N3CCCOCC3)C2=O)ccc1OC [SC0103],1 nM
< 10 µM,,,0.89 nM,CCCCCOc1cc(N2CC(CO)CN(Cc3ccc(CNC(=O)c4cocn4)cc3OC)C2=O)ccc1OC (centres unmarked) [SC0104],1.1 nM
119 µM,,,0.08 nM,CCCCCOc1cc(N2CC[C@H](C)N(Cc3ccnc4c3c(Cl)cn4CC(=O)N3CCNC(=O)C3)C2=O)ccc1OC [SC0106],1.1 nM
52 µM,,,0.36 nM,CCCCCOc1cc(N2CC[C@H](C)N(Cc3cccc4c3c(C)cn4CC(=O)N(C)C)C2=O)ccc1OC [SC0107],1.1 nM
< 10 µM,,,0.18 nM,COc1ccc(N2CC[C@H](C)N(Cc3cccc4c3c(Cl)cn4CC(=O)N3CCOCC3)C2=O)cc1OCCCC1CC1 [SC0115],1.4 nM
< 10 µM,,,0.02 nM,COc1ccc(N2CC[C@H](C)N(Cc3cccc4c3c(Cl)cn4CC(=O)N(C)C)C2=O)cc1OCCCC1CC1 [SC0116],1.4 nM
65 µM,,,1.21 nM,COc1ccc(N2CC[C@H](C)N(Cc3ccnc4c3c(Cl)cn4CC(=O)N(C)C)C2=O)cc1OCCCC1CC1 [SC0119],1.4 nM
< 10 µM,,,0.02 nM,CCCCCOc1cc(N2CC[C@H](C)N(Cc3cccc4c3c(Cl)cn4CC(=O)N3CCCOCC3)C2=O)ccc1OC [SC0128],1.7 nM
450 µM,,,0.89 nM,CCCCCOc1cc(N2CC(C)CN(Cc3ccc(CC(=O)N4CCNC(=O)C4)cc3OC)C2=O)ccc1OC (centres unmarked) [SC0163],2.8 nM
490 µM,,,2.25 nM,CCCCCOc1cc(N2CC(CO)CN(Cc3ccc(CC(=O)N(C)C)cc3OC)C2=O)ccc1OC (centres unmarked) [SC0172],3.8 nM

# Continued, molecule first:
SMILES,solubility kinetic [1],efflux ratio at 3 μM [2],Papp A→B at 3 μM [3],Kd [4],IC50 (Human C5)
CCCCCOc1cc(N2CCCN(Cc3ccnc4c3c(Cl)cn4CC(=O)N3CC4CC(C3)O4)C2=O)ccc1OC [CU0506],,59,21.1 ×10⁻⁶ cm/s,,
CCCCCOc1cc(N2CCCN(Cc3ccc(CNC(C)=O)cc3OC)C2=O)ncc1OC [CU0579],339 µM,31,23.5 ×10⁻⁶ cm/s,,
COc1ccc(N2CCCN(Cc3ccnc4c3c(Cl)cn4CC(=O)N(C)C)C2=O)cc1Br [CU0689],,8,23.8 ×10⁻⁶ cm/s,,
CCCCCOc1cc(N2CC[C@H](C)N(Cc3cccc4c3c(C)cn4CC(=O)N(C)C3CCN(CC)C3)C2=O)ccc1OC (some centres unmarked) [SC0105],399 µM,,,0.08 nM,1.1 nM
CCCCCOc1cc(N2CC[C@H](C)N(Cc3ccnc4c3c(Cl)cn4CC(=O)N3CCOC3)C2=O)ccc1OC [SC0113],,,17.9 ×10⁻⁶ cm/s,0.02 nM,1.3 nM
CCCCCOc1cc(N2CC[C@H](C)N(Cc3ccnc4c3c(Cl)cn4CC(=O)N3CCC3)C2=O)ccc1OC [SC0122],81 µM,,,0.22 nM,1.5 nM
CCCCCOc1cc(N2CC[C@H](C)N(Cc3cccc4[nH]cc(C)c34)C2=O)ccc1OC [SC0148],< 10 µM,,,0.92 nM,2.2 nM
CCCCCOc1cc(N2CC[C@H](C)N(Cc3cccc4c3c(Cl)cn4CC(=O)N3CCOC(CN(C)C)C3)C2=O)ccc1OC (some centres unmarked) [SC0154],315 µM,,,0.04 nM,2.3 nM
COc1ccc(N2CC[C@H](C)N(Cc3cccc4c3ccn4CC(=O)N(C)C)C2=O)cc1OCCCC1CC1 [SC0174],40 µM,,,0.78 nM,4.3 nM
CCCCCOc1cc(N2CC(CO)CN(Cc3ccc(CC(=O)N4CCNC(=O)C4)cc3OC)C2=O)ccc1OC (centres unmarked) [SC0178],443 µM,,,1.07 nM,4.8 nM
